Results taken from patent publication US20150306096A1, “8'-HYDROXY-DIHYDROERGOTAMINE COMPOUNDS AND COMPOSITIONS” (MAP Pharmaceuticals, Inc., priority 2012, published 2015).
Like-named read-outs stand apart in the source and are kept apart here.

How the values were obtained:
[1] = molecular target: T1, human Dopamine D2L receptor (Homo sapiens, UniProt P14416); assay: cAMP HTRF functional assay (agonist/antagonist); assay type: cell-based
T1 construct: expressed in transfected cells; host or cells: CHO-K1
Experimental: Functional profiling of agonist and antagonist activities of 8′-OH DHE on human Adrenergic α1D, Dopamine D2L, and Serotonin 5-HT1B, 5-HT1D, 5-HT1F, 5-HT3, 5-HT4e and 5-HT5A receptors (compared against the parent (DHE) molecule) was carried out as follows.
The SPA 35S-GTPγS tests were conducted with Euroscreen membrane preparations […]. The HTRF assays were conducted with recombinant cell lines. The receptor accession numbers, cellular background and reference compounds are as reported below in Table 10.
(2) DHE and 8′-OH DHE were tested for agonist and antagonist activity at the human Dopamine D2L receptor using cAMP HTRF assay (in triplicate) at the following nanomolar concentrations: […]
Agonist activity of the test compounds was expressed as a percentage of the activity of the reference agonist at its EC100 concentration. Antagonist activity of the test compounds was expressed as a percentage of the inhibition of the reference agonist activity at its EC80 concentration. Dose-response data from the test compounds were analyzed with XLfit (IDBS) software using nonlinear regression applied to a sigmoidal dose-response model and the following equation: […]

human D2L receptor = molecular target: T2, human D2L receptor (Homo sapiens, UniProt P14416); assay: Radioligand competition binding and kinetics, CHO-K1 membranes
T2 construct: purchased Euroscreen; host or cells: CHO-K1
Experimental: For kinetics of radioligand competitive binding, serial dilutions were performed from master solution in 100% DMSO to obtain intermediate concentrations 200-fold higher than the concentrations to be tested. Each test sample was diluted 100-fold in the assay buffer and dispensed into the test plate.
D2L Radioligand Binding Assay
Assay buffer: 25 mM HEPES (pH 7.4), 5 mM MgCl2, 1 mM CaCl2, BSA protease free 0.5% Washing buffer: 25 mM HEPES (pH 7.4), 5 mM MgCl2, 1 mM CaCl2 Membrane: recombinant CHO-K1-D2L membranes thawed on ice and diluted in assay buffer (2 μg/well)
Ligand: Risperidone (Tocris Bioscience, 2865)
Radioligand: [^3H]-Spiperone (TRK818, diluted in assay buffer for a final concentration of 3 nM) Filter plate: GF/B Unifilter plate (Perkin Elmer, 6005177) presoaked in 0.5% PEI for 2 hours at RT.
Determination of the Kon constant. Radioligand association kinetics on each receptor were performed by adding in the wells of a 96 well plate 50 μL of radioligand and 50 μL of membrane extracts. The samples were incubated for the times reported in Table 3 below at a temperature optimized for each receptor and filtered over a filter plate. After washing the filters 5 times with 0.5 mL of ice-cold washing buffer, 50 μL of Microscint 20 (Packard) were added to the filters and the plates were incubated 15 min on an orbital shaker and then counted for 1 min/well. This allowed determination of the kobs for each radioligand. Association kinetics were performed at 5 different radioligand concentrations optimized for each receptor (see Table 3 below) to determine 5 different kobs. The different kobs were then plotted against the [radioligand] and the K. was calculated using the following equation: kon=(kobs−koff)[radioligand].
Determination of the Koff constant. Radioligand dissociation kinetics on each receptor were performed by adding in the wells of a 96 well plate 45 μL of radioligand and 45 μL of membrane extracts. The samples were incubated as reported in Table 4 below at a temperature optimized for each receptor until binding equilibrium was reached as determined by the association kinetics experiment. Then, 100 μL of cold competitor (reference ligand) were added at a 200 fold excess (final concentration) for the times reported in Table 4 at the optimized temperature. The samples were then filtered over a filter plate. After washing the filters 5 times with 0.5 mL of ice-cold washing buffer, 50 μL of Microscint 20 (Packard) were added to the filters and the plates were incubated 15 min on an orbital shaker and then counted for 1 min/well. This allowed determination of the koff for each radioligand.
Determination of IC50 and Ki constant for each test compound. Radioligand competition binding on each receptor were performed by adding in the wells of a 96 well plate […] of test compound at increasing concentration as reported in Table 5 below, 25 μL of radioligand and 25 μL of membrane extracts. The samples were incubated for 60 min (or 4 hours for a second experiment on 5-HT2B receptors) at a temperature optimized for each receptor and then filtered over a filter plate. After washing the filters 5 times with 0.5 mL of ice-cold washing buffer, 50 μL of Microscint 20 (Packard) were added to the filters and the plates were incubated 15 min on an orbital shaker and then counted for 1 min/well. The test compounds were tested in duplicate at the nanomolar concentrations reported below in Table 5.
Determination of kon and koff constants for each test compound. Each compound was first assessed in a pilot experiment to evaluate its effect on the kinetic binding of each receptor-radioligand pair. These pilot experiments were performed at on compound concentration and were composed of 10 time-points measurements in duplicate (2, 5, 10, 20, 30, 45, 60, 90, 120 and 150 minutes). […]

T2 sequence (P14416 whole entry): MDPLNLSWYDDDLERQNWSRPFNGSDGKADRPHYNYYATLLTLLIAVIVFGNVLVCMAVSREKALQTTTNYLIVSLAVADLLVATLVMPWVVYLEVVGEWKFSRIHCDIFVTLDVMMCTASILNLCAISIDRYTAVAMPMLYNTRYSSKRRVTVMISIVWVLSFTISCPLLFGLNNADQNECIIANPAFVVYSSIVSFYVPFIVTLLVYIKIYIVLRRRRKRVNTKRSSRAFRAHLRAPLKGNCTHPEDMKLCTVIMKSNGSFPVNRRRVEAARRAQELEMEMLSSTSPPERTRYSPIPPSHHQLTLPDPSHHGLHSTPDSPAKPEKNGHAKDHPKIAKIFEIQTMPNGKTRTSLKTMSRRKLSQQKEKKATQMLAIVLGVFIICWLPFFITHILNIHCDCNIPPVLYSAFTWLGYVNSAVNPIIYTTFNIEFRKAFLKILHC
T1 sequence (P14416 whole entry): as above

Compound	EC50 ([1]; Dopamine D2L, cAMP HTRF, read-out: Functional activity (agonist)) [nM]	Avg Dissociation half-life (human D2L receptor; D2L) [min]	Avg Koff (human D2L receptor; D2L) [s⁻¹]	IC50 (human D2L receptor; D2L, [3H]-Spiperone, read-out: IC50 from binding assay) [nM]	EC50 [1] [nM]	IC50 (human D2L receptor) [nM]	koff (human D2L receptor; D2L) [s⁻¹]
CN1C[C@H](C(=O)N[C@]2(C)O[C@@]3(O)[C@@H]4CCC(O)N4C(=O)[C@H](Cc4ccccc4)N3C2=O)C[C@@H]2c3cccc4[nH]cc(c34)C[C@H]21 (some centres unmarked) [8′-OH DHE, 8′-Hydroxy-Dihydroergotamine]	1.61	9	0.00127	297	–	–	–
CN1C[C@H](C(=O)N[C@]2(C)O[C@@]3(O)[C@@H]4CCCN4C(=O)[C@H](Cc4ccccc4)N3C2=O)C[C@@H]2c3cccc4[nH]cc(c34)C[C@H]21 [DHE, Dihydroergotamine]	–	14.4	–	–	0.835	231	0.000792
